Data published in patent US20250326753A1, “DUAL CXCR4-BTK INHIBITORS” (X4 Pharmaceuticals, Inc., priority 2022, published 2025).

Biological target: T1, BTK (Bruton tyrosine kinase) (Homo sapiens, UniProt Q06187)
T1 construct: GST or His (the text leaves open which); purchased Reaction Biology Europe GmbH Lot 012,11; host or cells: Sf9 insect cells or E. coli (not resolved)
Assay: BTK screening assay (33PanQinase Activity Assay, radiometric)
Type: biochemical
Details: not given
Method: Inhibition of BTK activity was evaluated using a radiometric protein kinase assay (33PanQinase® Activity Assay) to measure the activity of BTK (Bruton tyrosine kinase).
Kinase assays were performed in 96-well ScintiPlates™ from Perkin Elmer (Boston, MA, USA) in a 50 μL reaction volume. The reaction cocktail was pipetted in four steps in the following order: 10 μL of non-radioactive ATP solution (in H2O); 25 μL of assay buffer/[γ-^33P]-ATP mixture; 5 μL of compound test sample in 10% DMSO; 10 μL of enzyme/substrate mixture.
BTK kinase was expressed in Sf9 insect cells or in E. coli as recombinant GST-fusion proteins or His-tagged proteins, either as full-length or enzymatically active fragments from human cDNAs, and purified by either GSH-affinity chromatography or immobilized metal. Purity was examined by SDS-PAGE/Coomassie staining, and identity confirmed by mass spectroscopy.
The reaction cocktails were incubated at 30° C. for 60 minutes. The reaction was stopped with 50 μL of 2% (v/v) H3PO4, plates were aspirated and washed two times with 200 μL 0.9% (w/v) NaCl. Incorporation of ^33Pi (counting of “cpm”) was determined with a microplate scintillation counter (Microbeta, Wallac).
The median value of the counts in wells containing assay buffer without enzyme, and without test compound was defined as “low control.” This value reflects unspecific binding of radioactivity to the plate in the absence of a protein kinase but in the presence of the substrate. The median value of the counts in wells containing assay buffer without test compound was defined as the “high control,” i.e. full activity in the absence of any inhibitor. The difference between high and low control was taken as 100% activity. Residual activity (in %) was calculated using the following formula: Res. Activity (%)=100×[(cpm of compound-low control)/(high control-low control)].
The fitting method used was a least-squares fit.

T1 sequence (Q06187 whole entry): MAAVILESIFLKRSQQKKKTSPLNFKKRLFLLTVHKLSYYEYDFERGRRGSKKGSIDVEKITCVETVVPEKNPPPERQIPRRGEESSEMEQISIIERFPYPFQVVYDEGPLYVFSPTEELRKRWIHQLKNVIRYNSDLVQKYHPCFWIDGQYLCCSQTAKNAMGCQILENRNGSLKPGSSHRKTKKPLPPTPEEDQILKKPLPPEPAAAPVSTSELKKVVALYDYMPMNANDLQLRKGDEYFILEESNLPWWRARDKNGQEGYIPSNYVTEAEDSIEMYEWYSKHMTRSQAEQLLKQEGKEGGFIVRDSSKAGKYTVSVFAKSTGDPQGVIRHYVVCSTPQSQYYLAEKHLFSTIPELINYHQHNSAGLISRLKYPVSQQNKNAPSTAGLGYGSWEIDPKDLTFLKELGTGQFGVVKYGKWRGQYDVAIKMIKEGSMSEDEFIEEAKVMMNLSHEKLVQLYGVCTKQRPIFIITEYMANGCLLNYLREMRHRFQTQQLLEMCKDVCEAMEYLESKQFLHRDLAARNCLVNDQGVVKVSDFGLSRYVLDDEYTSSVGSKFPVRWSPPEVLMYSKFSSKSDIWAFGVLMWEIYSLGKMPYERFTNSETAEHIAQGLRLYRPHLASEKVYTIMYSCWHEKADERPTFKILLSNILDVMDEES

Question: Cc1cccnc1[C@H]1CCC[C@@H](c2ncccc2C)N1CCNC(=O)c1cc2c(-c3cccc(NC(=O)c4ccccc4)c3C)ncnc2[nH]1 [Compound I-74] was tested. Which IC50 did it give?
Answer: > 2500 nM

Same assay, conditions: Inhibition of BTK, radiometric 33PanQinase Activity Assay, 3 μM ATP, 10 concentrations in singlicate, top 10 μM; read-out: 33PanQinase ® Radiometric IC50

Question: Cc1cc(-c2ncnc3[nH]c(C(=O)NCCCCN4[C@@H](c5ncccc5C)CCC[C@H]4c4ncccc4C)cc23)ccc1CNC(=O)c1ccccc1 [Compound I-47] was tested. Which IC50 did it give?
Answer: 1 to 100 nM

Question: Which IC50 does the source give for CCc1ccc(C(=O)NCc2ccc(-c3ncnc4[nH]c(C(=O)NCCCCN5[C@@H](c6ncccc6C)CCC[C@H]5c5ncccc5C)cc34)cc2C)cc1 [Compound I-48] here?
Answer: 1 to 100 nM

Question: How did the IC50 turn out when Cc1cc(-c2ncnc3[nH]c(C(=O)NCCCCN4[C@@H](c5ncccc5C)CCC[C@H]4c4ncccc4C)cc23)ccc1CNC(=O)c1ccc(F)cc1 [Compound I-49] was run?
Answer: 1 to 100 nM

Question: Cc1cc(-c2ncnc3[nH]c(C(=O)NCCCN4[C@@H](c5ncccc5C)CCC[C@H]4c4ncccc4C)cc23)ccc1CNC(=O)c1ccccc1 [Compound I-50] was tested. Which IC50 did it give?
Answer: 1 to 100 nM

Question: With CCc1ccc(C(=O)NCc2ccc(-c3ncnc4[nH]c(C(=O)NCCCN5[C@@H](c6ncccc6C)CCC[C@H]5c5ncccc5C)cc34)cc2C)cc1 [Compound I-51] as the compound, how does the IC50 read?
Answer: 1 to 100 nM

Question: With Cc1cc(-c2ncnc3[nH]c(C(=O)NCCCN4[C@@H](c5ncccc5C)CCC[C@H]4c4ncccc4C)cc23)ccc1CNC(=O)c1ccc(F)cc1 [Compound I-52] as the compound, how does the IC50 read?
Answer: 1 to 100 nM

Question: For CCOC1CN(C(=O)NCc2ccc(-c3ccnc(Nc4cnn(CCN5[C@@H](c6ncccc6C)CCC[C@H]5c5ncccc5C)c4)n3)cc2C)C1 [Compound I-53], which IC50 is on record?
Answer: 1 to 100 nM

Question: For COC1CN(C(=O)NCc2ccc(-c3ccnc(Nc4cnn(CCCN5[C@@H](c6ncccc6C)CCC[C@H]5c5ncccc5C)c4)n3)cc2C)C1 [Compound I-54], which IC50 is on record?
Answer: 1 to 100 nM

Question: With CCOC1CN(C(=O)NCc2ccc(-c3ccnc(Nc4cnn(CCCN5[C@@H](c6ncccc6C)CCC[C@H]5c5ncccc5C)c4)n3)cc2C)C1 [Compound I-55] as the compound, how does the IC50 read?
Answer: 1 to 100 nM

Question: How did the IC50 turn out when Cc1cc(-c2ccnc(Nc3cnn(CCCN4[C@@H](c5ncccc5C)CCC[C@H]4c4ncccc4C)c3)n2)ccc1CNC(=O)N1CC(OC(C)(C)C)C1 [Compound I-56] was run?
Answer: 1 to 100 nM

Question: Which IC50 does the source give for Cc1cc(-c2ccnc(Nc3cnn(CCCN4[C@@H](c5ncccc5C)CCC[C@H]4c4ncccc4C)c3)n2)ccc1CNC(=O)N1CC(OC(F)(F)F)C1 [Compound I-57] here?
Answer: 1 to 100 nM

Question: Which IC50 does the source give for Cc1ccc(Oc2ccc(C(=O)c3c[nH]c4ncnc(N[C@@H]5CC[C@@H](C(=O)NCCCCN6[C@@H](c7ncccc7C)CCC[C@H]6c6ncccc6C)OC5)c34)c(Cl)c2)cc1 [Compound I-58] here?
Answer: 1 to 100 nM

Question: With Cc1cccc(Oc2ccc(C(=O)c3c[nH]c4ncnc(N[C@@H]5CC[C@@H](C(=O)NCCCCN6[C@@H](c7ncccc7C)CCC[C@H]6c6ncccc6C)OC5)c34)c(Cl)c2)c1 [Compound I-59] as the compound, how does the IC50 read?
Answer: 1 to 100 nM

Question: Which IC50 does the source give for Cc1ccccc1Oc1ccc(C(=O)c2c[nH]c3ncnc(N[C@@H]4CC[C@@H](C(=O)NCCCCN5[C@@H](c6ncccc6C)CCC[C@H]5c5ncccc5C)OC4)c23)c(Cl)c1 [Compound I-60] here?
Answer: 1 to 100 nM

Question: For Cc1cccnc1[C@H]1CCC[C@@H](c2ncccc2C)N1CCN1CCN(C(=O)c2ccc(-c3cc4c(-c5cccc(NC(=O)c6ccc(F)cc6)c5C)ncnc4[nH]3)cc2)CC1 [Compound I-67], which IC50 is on record?
Answer: 1 to 100 nM

Question: For Cc1cccnc1[C@H]1CCC[C@@H](c2ncccc2C)N1CCN1CCN(C(=O)c2ccc(-c3cc4c(-c5cccc(NC(=O)c6ccccc6F)c5C)ncnc4[nH]3)cc2)CC1 [Compound I-68], which IC50 is on record?
Answer: 1 to 100 nM

Question: With CC(=O)Nc1cccc(-c2ncnc3[nH]c(-c4ccc(C(=O)N5CCN(CCN6[C@@H](c7ncccc7C)CCC[C@H]6c6ncccc6C)CC5)cc4)cc23)c1C [Compound I-69] as the compound, how does the IC50 read?
Answer: 1 to 100 nM

Question: Cc1cccnc1[C@H]1CCC[C@@H](c2ncccc2C)N1CCN1CCN(C(=O)c2ccc(-c3cc4c(-c5cccc(NC(=O)C(C)(C)C)c5C)ncnc4[nH]3)cc2)CC1 [Compound I-70] was tested. Which IC50 did it give?
Answer: 100 to 1000 nM

Question: With Cc1cccnc1[C@H]1CCC[C@@H](c2ncccc2C)N1CCN1CCN(C(=O)[C@]23C[C@](c4cc5c(-c6cccc(NC(=O)c7ccccc7)c6C)ncnc5[nH]4)(C2)C3)CC1 [Compound I-71] as the compound, how does the IC50 read?
Answer: 1000 to 2500 nM

Question: With Cc1cccnc1C1CCCCN1CCN1CCN(C(=O)c2ccc(-c3cc4c(-c5cccc(NC(=O)c6ccccc6)c5C)ncnc4[nH]3)cc2)CC1 (stereo not shown) [Compound I-73] as the compound, how does the IC50 read?
Answer: 100 to 1000 nM

Question: How did the IC50 turn out when Cc1cccnc1[C@H]1CCC[C@@H](c2ncccc2C)N1CCCNC(=O)c1cc2c(-c3cccc(NC(=O)c4ccccc4)c3C)ncnc2[nH]1 [Compound I-75] was run?
Answer: > 2500 nM

Question: For Cc1cccnc1[C@H]1CCC[C@@H](c2ncccc2C)N1CCCCNC(=O)c1cc2c(-c3cccc(NC(=O)c4ccccc4)c3C)ncnc2[nH]1 [Compound I-76], which IC50 is on record?
Answer: > 2500 nM

Question: With Cc1cccnc1[C@H]1CCC[C@@H](c2ncccc2C)N1CCNC1CN(C(=O)c2cc3c(-c4cccc(NC(=O)c5ccccc5)c4C)ncnc3[nH]2)C1 [Compound I-77] as the compound, how does the IC50 read?
Answer: > 2500 nM

Question: How did the IC50 turn out when Cc1cccnc1[C@H]1CCC[C@@H](c2ncccc2C)N1CCCNC1CN(C(=O)c2cc3c(-c4cccc(NC(=O)c5ccccc5)c4C)ncnc3[nH]2)C1 [Compound I-78] was run?
Answer: > 2500 nM

Question: For Cc1cccnc1[C@H]1CCC[C@@H](c2ncccc2C)N1CCCCNC1CN(C(=O)c2cc3c(-c4cccc(NC(=O)c5ccccc5)c4C)ncnc3[nH]2)C1 [Compound I-79], which IC50 is on record?
Answer: > 2500 nM

Question: With Cc1cc(-c2ncnc3[nH]c(C(=O)NCCN4[C@@H](c5ncccc5C)CCC[C@H]4c4ncccc4C)cc23)ccc1CNC(=O)c1ccc(F)cc1 [Compound I-80] as the compound, how does the IC50 read?
Answer: 100 to 1000 nM

Question: Which IC50 does the source give for Cc1cc(-c2ncnc3[nH]c(C(=O)NCCN4[C@@H](c5ncccc5C)CCC[C@H]4c4ncccc4C)cc23)ccc1CNC(=O)c1cccc(F)c1 [Compound I-81] here?
Answer: 100 to 1000 nM

Question: Which IC50 does the source give for Cc1cc(-c2ncnc3[nH]c(C(=O)NCCCN4[C@@H](c5ncccc5C)CCC[C@H]4c4ncccc4C)cc23)ccc1CNC(=O)c1cccc(F)c1 [Compound I-82] here?
Answer: 100 to 1000 nM

Question: Cc1cc(-c2ncnc3[nH]c(C(=O)NCCCCN4[C@@H](c5ncccc5C)CCC[C@H]4c4ncccc4C)cc23)ccc1CNC(=O)c1cccc(F)c1 [Compound I-83] was tested. Which IC50 did it give?
Answer: 100 to 1000 nM

Question: Which IC50 does the source give for Cc1cc(-c2ncnc3[nH]c(C(=O)NCCN4[C@@H](c5ncccc5C)CCC[C@H]4c4ncccc4C)cc23)ccc1CNC(=O)c1cc(F)cc(F)c1 [Compound I-84] here?
Answer: 100 to 1000 nM

Question: Cc1cc(-c2ncnc3[nH]c(C(=O)NCCCN4[C@@H](c5ncccc5C)CCC[C@H]4c4ncccc4C)cc23)ccc1CNC(=O)c1cc(F)cc(F)c1 [Compound I-85] was tested. Which IC50 did it give?
Answer: 100 to 1000 nM

Question: Cc1cc(-c2ncnc3[nH]c(C(=O)NCCCCN4[C@@H](c5ncccc5C)CCC[C@H]4c4ncccc4C)cc23)ccc1CNC(=O)c1cc(F)cc(F)c1 [Compound I-86] was tested. Which IC50 did it give?
Answer: 100 to 1000 nM

Question: Cc1cccnc1[C@H]1CCC[C@@H](c2ncccc2C)N1CCNC(=O)c1cc2c(-c3cccc(NC(=O)c4ccc(F)cc4)c3C)ncnc2[nH]1 [Compound I-87] was tested. Which IC50 did it give?
Answer: > 2500 nM

Question: For Cc1cccnc1[C@H]1CCC[C@@H](c2ncccc2C)N1CCCNC(=O)c1cc2c(-c3cccc(NC(=O)c4ccc(F)cc4)c3C)ncnc2[nH]1 [Compound I-88], which IC50 is on record?
Answer: > 2500 nM

Question: Which IC50 does the source give for Cc1cccnc1[C@H]1CCC[C@@H](c2ncccc2C)N1CCCCNC(=O)c1cc2c(-c3cccc(NC(=O)c4ccc(F)cc4)c3C)ncnc2[nH]1 [Compound I-89] here?
Answer: > 2500 nM

Question: Cc1cccnc1[C@H]1CCC[C@@H](c2ncccc2C)N1CCNC1CN(C(=O)c2cc3c(-c4cccc(NC(=O)c5ccc(F)cc5)c4C)ncnc3[nH]2)C1 [Compound I-90] was tested. Which IC50 did it give?
Answer: > 2500 nM
